Data on four compounds can be found in patent US20240025953A1, “COMPOSITIONS AND METHODS FOR INHIBITING ALPHA-SYNUCLEIN AGGREGATION” (Seelos Therapeutics, Inc., priority 2020, published 2024).

Common to all, as to type: in vitro ADME
Series [1] can be described thus: Permeability in a Caco-2 assay. The settings on record: human; for efflux ratio at 10 μM: read-out: Mean (B-A/A-B) Efflux Ratio. On the procedure:
(§1) Permeability of the S62 and S71 peptides were assessed in a Caco-2 assay using methanol.
(§2) Permeability Ranking: lower is <1×10−6 cm/s; higher is >1×10-6 cm/s.
(In general: Caco-2 monolayers are a common model of the intestinal barrier.)

Series [2] in a line: Stability in rat plasma. The settings on record: in vitro in rat plasma, 1% TCA and methanol as quenchers. On the procedure: S62 and S71 peptides (SEQ ID NOs: 3 and 4, respectively) were incubated in vitro in rat plasma with 1% TCA and methanol as quenchers for a period of time calculated to be reflective of the amount of time the peptides would be subject to in vivo conditions if administered to rats.

For series [3], the system named is Caco-2. Description: Permeability in a Caco-2 assay. As to conditions: Caco-2 assay using methanol. The procedure: as §1, §2
[4] abbreviates: Caco-2, Assay Conc. 10 μM, without verapamil.
The mark [5] stands for this setting: Caco-2, Assay Conc. 10 μM, without verapamil, read-out: Mean A-B % Recovery.
Where [6] appears, read: Caco-2, Assay Conc. 10 μM, without verapamil, read-out: Mean B-A % Recovery.
[7] abbreviates: Caco-2, with Verapamil 25 uM, Assay Conc. 10 μM, with Verapamil 25 uM, read-out: Mean A-B % Recovery.
[8] abbreviates: Caco-2, with Verapamil 25 uM, Assay Conc. 10 μM, with Verapamil 25 uM, read-out: Mean B-A % Recovery.

Like-named read-outs stand apart in the source and are kept apart here. Ends that are not written are not given here.

The Papp A→B is the apparent permeability from the apical to the basolateral side of a cell layer. A low value points to slow passage. The term Papp B→A denotes how fast a substance crosses the layer from the basolateral side. `CNC(=C[N+](=O)[O-])NCCSCc1ccc(CN(C)C)o1` [Ranitidine, reference compound]: in series [1] (setting [4]), the Papp A→B at 10 μM worked out at 0.391 ×10⁻⁶ cm/s, the Papp B→A at 10 μM was determined as 1.03 ×10⁻⁶ cm/s and the efflux ratio at 10 μM came to 2.65. Moreover, the recovery at 10 μM in series [1] (setting [5]) was 87.1%. In series [1] (setting [6]), the recovery at 10 μM is 95.2%.
The like results for `CC(=O)CC(c1ccccc1)c1c(O)c2ccccc2oc1=O` (stereo not shown) [Warfarin, reference compound] were, in that order, 36.8 ×10⁻⁶ cm/s, 33.8 ×10⁻⁶ cm/s, 0.917, 93% and 93.4%.
GAVVWGVTAVKK [S62, GAVVWGVTAVKK]: the “recovery of the peptides after incubation in rat plasma” value in series [2] is “not high enough to detect”. Moreover, the recovery at 10 μM in series [1] (setting [5]) is 70.1%; in series [1] (setting [6]), 92.5%; in series [1] (setting [7]) it was 59.7%; in series [1] (setting [8]) it was 91.3%. Moreover, in series [3], the “Permeability (in words)” value was “neither of the peptides exhibited permeability”.
On to RAVVTGVTAVAE [S71, RAVVTGVTAVAE], for which, in series [2], the “recovery of the peptides after incubation in rat plasma” value is “not high enough to detect”. The recovery at 10 μM in series [1] (setting [5]) amounted to 91.4%; in series [1] (setting [6]), 74.7%; in series [1] (setting [7]) it was 80.7%; in series [1] (setting [8]), 92.7%. For the same compound, in series [3], the “Permeability (in words)” value was “neither of the peptides exhibited permeability”.
